Measured values published in US5484778A, “Phthalocyanine photosensitizers for photodynamic therapy and methods for their use” (priority 1993, dated 1996).

Legend:
RIF-1 tumors [1] = experiment: PDT of RIF-1 implanted tumors (Table 7); assay type: in vivo, C3H/HeN mice; conditions: for effect on tumor volume / growth (in words): 1 mg/kg
Outline: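 C3H/HeN mice each carried one RIF-1 fibrosarcoma on the back and received 1 mg/kg phthalocyanine as a corn-oil suspension. Volume was measured daily by calipers from a 50±10 mm^3 start and calculated with the hemiellipsoid model.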

RIF-1 tumors [2] = experiment: Histology and DNA fragmentation in PDT-treated tumors; assay type: in vivo, C3H/HeN mice
[3] = system: Chinese hamster V79-379 cells; experiment: Growth delay of V79 cultures after red light (Table 1); assay type: cell-based
Outline: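 V79-379 lung fibroblasts were pretreated 18 h with phthalocyanines (0.5-1.0 μM final) or 1 μM AlPcCl, then irradiated in HBSS with >600 nm light at 12 kJ/m^2. Cells were counted over 3 days. Growth delay is the time for cell density to regain its level at irradiation, reported as a ratio to same-experiment AlPcCl.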

[4] = system: human squamous cell carcinoma; experiment: PDT of human squamous cell carcinoma in athymic nude mice (Table 9); assay type: in vivo, Harlen-Sprague Dawley athymic nude mice; conditions: 1.0 mg/kg; for % Tumor Response: 24 hours post illumination; for % Tumor Cure: 7 days post treatment
Procedure: A single cell suspension of human squamous cell carcinoma was injected subcutaneously into the back of Harlen-Sprague Dawley athymic nude mice. […]

## CN(C)CCC[Si](C)(C)O[Si]1(O)n2c3c4ccccc4c2N=C2N=C(N=c4c5ccccc5c(n41)=NC1=NC(=N3)c3ccccc31)c1ccccc12 (stereo not shown) [Compound IV, HOSiPcOsi(CH3)2)(CH2)3 N(CH3)2]
RIF-1 tumors [1]; 1 mg/kg in corn oil, 675 nm, 135 J/cm^2
  Doubling Time of Initial Tumor Volume after PDT: 16 days
RIF-1 tumors [1]; listed as Pc IV
  effect on tumor volume / growth (in words): significantly impair the growth of the tumors
RIF-1 tumors [1]; listed as PcIV
  effect on tumor volume / growth (in words): particularly effective in reducing tumor volume
RIF-1 tumors [1]; after PDT, from the tumor margins
  tumor regrowth: regrowth of tumors from the tumor margins occurred
RIF-1 tumors [2]; histological examination
  apoptotic bodies in the tumor: presence of apoptotic bodies in the tumor
RIF-1 tumors [2]; mouse, in vivo
  DNA fragment sizes, multiples of: 180-200 base pairs
[3]; 0.5 μM, 18 h, 12 kJ/m^2 red light
  Growth Delay, efficiency relative to 1 μM AlPcCl: > 3
[3]; red light 12 kJ/m^2, three day period
  inhibition of V79 culture growth (in words): substantial inhibition
[4]; 35 J/cm^2 675 nm, 15 min
  % Tumor Response: 40%
  % Tumor Cure: 0%
[4]; 75 J/cm^2 675 nm, 15 min
  % Tumor Response: 80%
  % Tumor Cure: 60%
[4]; 135 J/cm^2 675 nm, 15 min
  % Tumor Response: 100%
  % Tumor Cure: 100%
[4]; no light
  % Tumor Response: 0%
  % Tumor Cure: 0%
